Laboratory results taken from patent US7019028B2, “Endiandric acid H and its derivatives, process for their preparation and use thereof” (Aventis Pharma Deutschland GmbH, priority 2002, dated 2006).
pIC50: −log10 of the molar value.

Columns and labels:
[1] = molecular target: T1, c-maf (Mus musculus, UniProt P54843); assay: Bioassay: human IL-4 promoter/luciferase reporter in c-maf/IL-4 luc/NFAT CHO-K1 cell line; assay type: cell-based, murine; details: CHO-K1 cells with c-maf/IL-4 luc/NFAT vectors, 8 hours incubation; read-out: IC50 in the bioassay (inhibition of luciferase expression)
T1 construct: expressed in transfected cells; host or cells: CHO-K1 (monoclonal line c-maf/IL-4 luc/NFAT)
T1 sequence (P54843 1-370): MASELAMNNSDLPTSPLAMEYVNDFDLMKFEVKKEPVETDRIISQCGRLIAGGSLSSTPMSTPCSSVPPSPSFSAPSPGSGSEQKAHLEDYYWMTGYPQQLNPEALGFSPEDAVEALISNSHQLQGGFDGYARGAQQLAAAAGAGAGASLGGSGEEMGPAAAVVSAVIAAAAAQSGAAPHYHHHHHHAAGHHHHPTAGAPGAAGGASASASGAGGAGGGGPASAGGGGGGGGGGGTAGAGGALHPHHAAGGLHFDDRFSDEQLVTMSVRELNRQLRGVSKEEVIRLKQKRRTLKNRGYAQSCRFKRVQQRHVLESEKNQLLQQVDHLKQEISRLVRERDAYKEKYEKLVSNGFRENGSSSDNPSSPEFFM
Procedure: The zipper protein c-maf represents the assay target. It plays an important part in the release of mediators of inflammation, especially IL-4, and thus in the manifestation of inflammatory symptoms in asthma and allergies. c-maf is thus an important therapeutic target molecule for asthma, especially if it has an allergic cause. The activity of c-maf is measured in the assay on the basis of the IL-4 transcription rate. Compounds which interfere with the binding of the two transcription factors c-maf and NFAT lead in this case to a reduced expression of luciferase (read-out) through suppression of the transcription of a human IL-4 promoter/luciferase construct. […]
16 hours before the assay, CHO-K1 cells were harvested by trypsinization, washed once with PBS without Ca and Mg, resuspended in Ham's F-12 medium which additionally contained 10% fetal calf serum, 1% antibiotic/antimycotic, 0.001% Pluronic, 300 μg/ml Geneticin and 300 μg/ml Zeocin, and then quantified using a hemocytometer. […]
After the incubation time, the cells are in each case mixed with 3 μl of Bright-Glow™ luciferase assay reagent (Promega Corporation, Madison, USA) per well. The plates are then placed in the dark for 30 minutes and subsequently measured in a CyBiTM Lumax reader. […]
The inhibition was calculated as follows: [1−(LCSsample−LCSposcontr)/(LCSnegcontr−LCSposcontr)]×100(%)

[2] = Solubility (characterization of endiandric acid H); assay type: physicochemical
[3] = Stability in the solid state and in solution; assay type: physicochemical; details: solid state; solutions in the pH range between 3 and 8, in particular 4 and 6

- pIC50 [1]: 5.82
- Solubility in polar organic solvents ([2]; polar organic solvents): soluble in polar organic solvents
- Solubility in water ([2]; water): only slightly soluble in water
SMILES: O=C(O)C[C@@H]1[C@H]2C=C[C@H]3C(c4ccc5c(c4)OCO5)=C[C@@H](O)[C@@H]4C[C@H]1[C@@H]2[C@H]43 [Endiandric acid H, endiandric acid H]
- Stability [3]: stable in the solid state and in solutions in the pH range between 3 and 8
